Results on eight compounds are retold here after PubChem BioAssay (NCI).

Assay in all cases: inhibition of tumour cell growth, NCI panel, 48 h
Assay [1] relates to SW-620 colon.
For assay [2], the system named is BT-549 breast.
In assay [3] the test system is RPMI-8226 leukemia.
Assay [4] relates to HCT-116 colon.
Assay [5] relates to SF-539 CNS.
Assay [6] has as its system ACHN renal.
Assay [7] relates to SK-MEL-28 melanoma.
In assay [8] the test system is M14 melanoma.
Assay [9] has as its system OVCAR-5 ovarian.
Assay [10] deals with TK-10 renal.

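Results reflect a 48-hour exposure of cells in 96-well plates to compound at five concentrations. GI50: concentration for 50% inhibition of growth. Definition used: TGI = concentration required for complete inhibition of growth.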 A value given as a limit tells only on which side of the number the result lay.

On to `O=C(Cc1ccc(Nc2ccnc(C(F)(F)F)c2)cc1)Nc1cc(Cl)ccc1O`, for which the GI50 in [1] is 6230 nM; in assay [2], 4.07 µM; in assay [3], 1250 nM; in assay [4], 5120 nM; in assay [5], 7180 nM; in [6] it was 4.44 µM. Besides, the GI50 in [7] is 6.06 µM; in assay [8], 12300 nM; in assay [9] it was 17800 nM; in assay [10] it was 17700 nM. Besides, the TGI in assay [1] worked out at 21.4 µM; in assay [2], 22.5 µM; in [3], 4.1 µM; in [4], 26.5 µM; in assay [5], 22 µM; in assay [6] it was 44.2 µM. Besides, the TGI in assay [7] was 18.7 µM; in [8], 33.6 µM; in assay [9], 52.1 µM; in assay [10] it was 56 µM.

With `COc1ccc2c(c1)[nH]c(=O)c1c3cc(OC)c(OC)cc3cn21`, the GI50 in assay [1] is below 10 nM; in assay [2], below 0.024 µM; in assay [3] it was below 13.4 nM; in assay [4], below 10 nM; in assay [5] it was 17.5 nM; in assay [6], below 0.01 µM. Further, the GI50 in [7] was below 0.01 µM; in assay [8] it was below 10 nM; in assay [9], 41.1 nM; in assay [10] it was 386 nM. Moreover, the TGI was 1.52 µM in [1]; 0.861 µM in assay [2]; 1.19 µM in [4]; 0.0618 µM in [5]; 16.1 µM in assay [6]; 18.2 µM in assay [7]. Also, the TGI in [8] was determined as 11.8 µM; in assay [9], 18.1 µM; in [10] it was 17.3 µM.

As for `O=C(Cc1csc2nc(-c3ccc(Br)cc3)cn12)N/N=C/c1ccc(Cl)cc1Cl`, the GI50 in assay [1] was 23000 nM; in [2] it was 25.9 µM; in [3] it was 80200 nM; in assay [4], 17100 nM; in assay [5] it was 27200 nM; in [6] it was 22.6 µM. The GI50 in assay [7] was above 100 µM; in [8], 32900 nM; in assay [9] it was 28600 nM. The TGI in assay [1] was 60.2 µM; in assay [2], 76.9 µM; in [3], above 100 µM; in assay [4], 36.8 µM; in [5], 63.8 µM; in [6], 53.6 µM. The figures for the TGI in assay [7], in assay [8] and in assay [9] were above 100 µM, above 100 µM and 67.3 µM, respectively.

Turning to `O=C(Cn1c(C(=O)c2ccc(Cl)cc2)nc(-c2ccccc2)c1-c1ccccc1)c1ccc(Cl)cc1`, the GI50 is above 100000 nM in [1]; above 100 µM in assay [2]; above 100000 nM in assay [3]; above 100000 nM in assay [4]; above 100000 nM in assay [5]; above 100 µM in assay [6]. In addition, the GI50 is above 100 µM in assay [7], above 100000 nM in assay [8], above 100000 nM in assay [9] and above 100000 nM in assay [10]. For the same compound, the TGI in [1], in assay [2], in assay [3], in assay [4], in assay [5] and in assay [6] was above 100 µM throughout. Besides, the TGI in assay [7], in assay [8], in assay [9] and in assay [10] was above 100 µM each time.

For the compound `Cc1cn([C@H]2C[C@H](O)[C@@H](CO)O2)c(=O)nc1N`, the TGI in assay [1], in assay [2], in assay [3], in assay [4], in assay [5] and in [6] was above 100 µM in each case. For the same compound, the TGI in assay [7], in [8], in [9] and in assay [10] was above 100 µM in each case.

As to `CN(C)c1ccc(Nc2c3ccccc3nc3cc(NC(=O)CCN4CCCC4)ccc23)cc1`, the GI50 is 252 nM in assay [1]; 1.3 µM in assay [2]; 185 nM in assay [3]; 346 nM in assay [4]; 650 nM in assay [5]; 0.321 µM in assay [6]. Besides, the GI50 in [7] is 1.46 µM; in assay [8] it was 692 nM; in assay [9], 890 nM; in [10], 1130 nM. Moreover, the TGI in [1] was 1.68 µM; in assay [2], 2.73 µM; in assay [3] it was 0.711 µM; in assay [4], 1.61 µM; in [5], 1.92 µM; in assay [6], 1.12 µM. Moreover, the TGI was determined as 2.85 µM in assay [7], 2 µM in [8], 2.74 µM in assay [9] and 3 µM in [10].

`NC(=O)c1sc(-n2cnc3ccc(C(F)(F)F)cc32)cc1OCc1ccccc1Br`: the GI50 in [1] is 749 nM; in assay [2], 3.21 µM; in [3] it was 2700 nM; in assay [4], 1430 nM; in [5] it was 1370 nM; in assay [6] it was 5.54 µM. The GI50 in assay [7] is 4.82 µM; in [8] it was 1890 nM; in [9], 1460 nM; in [10], 7810 nM. The TGI in [1] was above 25 µM; in [2], above 25 µM; in assay [3], above 21.2 µM; in assay [4], above 25 µM; in assay [5], above 17 µM; in assay [6] it was above 25 µM. Besides, the TGI in [7] was above 25 µM; in assay [8], above 25 µM; in [9], above 19.2 µM; in assay [10], above 25 µM.

As to `CCCCCCCCNC(C)C(O)c1ccc(SC(C)C)cc1` (configuration not stated), the GI50 was 1740 nM in [1]; 1.82 µM in assay [2]; 2060 nM in [3]; 1590 nM in assay [4]; 1900 nM in [5]; 1.87 µM in assay [6]. In addition, the GI50 is 1.83 µM in assay [7], 1720 nM in assay [8], 1760 nM in assay [9] and 1700 nM in assay [10]. In addition, the TGI in [1] was 3.29 µM; in [2], 3.33 µM; in assay [3], 4.91 µM; in [4], 3.11 µM; in assay [5], 3.4 µM; in assay [6], 3.3 µM. Further, the TGI in assay [7] is 3.27 µM; in [8], 3.26 µM; in assay [9], 3.23 µM; in assay [10], 3.13 µM.
